Experimental data reported in patent publication US20250388495A1, “WATER SA[…], SYSTEM AND METHOD” (WATERCO LIMITED, priority 2020, published 2025).

Experiments:
[1] = Monitoring of H2O2 and ClO2 levels in the test tank during the efficacy test; assay type: physicochemical
Excerpt: An apparatus was set up to simulate swimming pool conditions and followed the Australian Pesticides and Veterinary Medicines Authority (APMVA) guidelines. A water tank filled with 180 litres of water recirculates via an ECO 100 pump (Waterco) set at low speed. A Hydrochlor® head unit (Waterco) is connected to a 13-plate low salt cell which is set to run at 100% during the test. A Digiheat unit (Waterco) is set up to control temperature during the tests. A FlowVis® valve (Waterco) was used to estimate flow rate through the apparatus. […] A Kemio™ test kit (Palintest) was used to monitor chlorine dioxide levels. A WDPHRH PER Swimming Pool controller was used to monitor pH and oxidation-reduction potential (ORP) during the tests.

[2] = Field trials: stability of chlorine dioxide in water with hydrogen peroxide; assay type: physicochemical
Excerpt: For example, field trials indicate that chlorine dioxide will last in water up to 5 times longer when used in conjunction with hydrogen peroxide.
The process allows chlorine dioxide to remain active in water for up to and beyond 5 days.

[3] = produced by electrolysis with hydrogen peroxide present

Compound | effect of the spike of pathogens on the level of the sanitiser [1] | effect of ultraviolet light on chlorine dioxide residual in the water [2, 3] | time chlorine dioxide remains active in water [2, 3] | effect of agitation on chlorine dioxide levels ([2]; used in conjunction with hydrogen peroxide) | how much longer chlorine dioxide will last in water ([2]; used in conjunction with hydrogen peroxide, field trials)
OO [Hydrogen peroxide] | minimal |  |  |  | 
[O][Cl+][O-] [chlorine dioxide] | dramatically affected | does not diminish | ≥ 5 days | not affected by agitation | up to 5 times longer
